Data published in patent publication US20240174618A1, “SUBSTITUTED (2-HETEROARYLOXYPHENYL)SULFONATES, SALTS THEREOF AND THEIR USE AS HERBICIDAL AGENTS” (Bayer Aktiengesellschaft, priority 2021, published 2024).

Columns and labels:
Type in all cases: in vivo
[1] = tested on: Polygonum convolvulus (POLCO); experiment: C. Herbicidal pre-emergence efficacy, POLCO; conditions: scored after about 3 weeks
Outline: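 Pre-emergence test: formulated compounds sprayed as aqueous suspension or emulsion with 0.5% additive at 600 l/ha onto soil covering sown seeds, at rates corresponding to 320 g/ha or less. After about 3 weeks in greenhouse, efficacy scored visually as percent versus untreated controls (100% = plants dead).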

[2] = tested on: Lolium rigidum (LOLRI); experiment: A. Herbicidal pre-emergence efficacy, LOLRI
Outline: (§1)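 Pre-emergence soil-surface spray in sandy loam pots, WP/EC in water plus 0.5% additive, 600 L/ha. Visual % damage rating after about 3 weeks in greenhouse vs. untreated; 0% = control-like, 100% = dead plants. Rates up to 1280 g/ha.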

[3] = tested on: Viola tricolor (VIOTR); experiment: E. Herbicidal post-emergence efficacy, VIOTR
Outline: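 Greenhouse post-emergence spray, one-leaf stage (2–3 wk after sowing, sandy loam); WP/EC formulation, aqueous + 0.5% additive, 600 l/ha water; rates 320 g/ha or less. Visual rating ~3 wk later vs untreated; 0% = control-like, 100% = dead.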

[4] = tested on: Veronica persica (VERPE); experiment: A. Herbicidal pre-emergence efficacy, VERPE; conditions: for Pre-emergence efficacy against VERPE: dosage 80 g/ha
Outline: as §1

[5] = tested on: Kochia scoparia (KCHSC); experiment: B. Herbicidal post-emergence efficacy, KCHSC; conditions: for Post-emergence efficacy against KCHSC in %: rated visually after about 3 weeks; for Post-emergence efficacy against KCHSC: 1280 g/ha
Outline: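 Weeds grown in sandy loam in greenhouse pots, sprayed at one-leaf stage (2–3 weeks after sowing) with WP or EC formulations as aqueous suspension/emulsion plus 0.5% additive at 600 L/ha water, rates up to 1280 g/ha. Visual efficacy rated about 3 weeks later versus untreated controls (0% = like control, 100% = dead).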

[6] = tested on: Kochia scoparia (KCHSC); experiment: A. Herbicidal pre-emergence efficacy, KCHSC
Outline: as §1

[7] = tested on: Echinochloa crus-galli (ECHCG); experiment: A. Herbicidal pre-emergence efficacy, ECHCG; conditions: scored visually after about 3 weeks vs untreated controls
Outline: as §1

[8] = 80 g/ha, scored visually after about 3 weeks vs untreated controls
[9] = pre-emergence, dosage 1280 g/ha

| Structure (SMILES) | Pre-emergence efficacy against POLCO ([1]; 80 g/ha) | Pre-emergence efficacy against POLCO ([1]; 320 g/ha) | Pre-emergence efficacy against LOLRI ([2]; dosage 320 g/ha) | Pre-emergence efficacy against LOLRI ([2]; dosage 1280 g/ha) | Post-emergence efficacy against VIOTR in % ([3]; application rate 80 g/ha) | Post-emergence efficacy against VIOTR in % ([3]; application rate 320 g/ha) | Pre-emergence efficacy against VERPE in % ([4]; 320 g/ha) | Pre-emergence efficacy against VERPE in % ([4]; 1280 g/ha) | Pre-emergence efficacy against VERPE [4] | Post-emergence efficacy against KCHSC in % ([5]; 80 g/ha) | Post-emergence efficacy against KCHSC in % ([5]; 320 g/ha) | Post-emergence efficacy against KCHSC [5] | Pre-emergence efficacy against KCHSC [6, 8] | Pre-emergence efficacy against KCHSC ([6]; pre-emergence, dosage 320 g/ha) | Pre-emergence efficacy against KCHSC [6, 9] | Pre-emergence efficacy against ECHCG ([7]; 80 g/ha) | Pre-emergence efficacy against ECHCG ([7]; 320 g/ha) | Pre-emergence efficacy against ECHCG ([7]; 1280 g/ha) |
| --- | --- | --- | --- | --- | --- | --- | --- | --- | --- | --- | --- | --- | --- | --- | --- | --- | --- | --- |
| O=S(=O)(CCCC(F)(F)F)Oc1c(F)cccc1Oc1ncc(F)cn1 [Example I-42] | 100% | 100% | 100% | 100% | 100% | 100% | 100% | 100% | 100% | 90% | 100% | 100% | 100% | 100% | 100% | 100% | 100% | 100% |
| O=S(=O)(CCC(F)(F)F)Oc1c(Br)cccc1Oc1ncc(F)cn1 [Example I-43] | 90% | 90% | 100% | 100% | 90% | 100% | 100% | 100% | – | 90% | 90% | 100% | – | – | 100% | – | 100% | 100% |
| Cc1cccc(Oc2ncc(F)cn2)c1OS(=O)(=O)CCC(F)(F)F [Example I-45] | 100% | 100% | 100% | 100% | 90% | 100% | 100% | 100% | – | – | 90% | 100% | – | 100% | 100% | 90% | 100% | 100% |
| Cc1cccc(Oc2ncc(F)cn2)c1OS(=O)(=O)CCCC(F)(F)F [Example I-46] | 90% | 100% | 100% | 100% | 90% | 100% | 90% | 100% | 90% | – | – | 100% | – | – | 90% | 100% | 100% | 100% |
| O=S(=O)(CCC(F)(F)F)Oc1c(F)cccc1Oc1ncc(F)cn1 [Example I-47] | 100% | 100% | 100% | 100% | 100% | 100% | 100% | 100% | 90% | 100% | 100% | 100% | 100% | 100% | 100% | 100% | 100% | 100% |
| O=S(=O)(CCC(F)(F)F)Oc1c(F)cccc1Oc1ncc(Cl)cn1 [Example I-48] | 100% | 100% | 90% | 90% | 100% | 100% | 100% | 100% | 90% | 90% | 90% | 90% | 100% | 100% | 100% | 90% | 90% | 90% |
| O=S(=O)(CCCC(F)(F)F)Oc1c(F)cccc1Oc1ncc(Cl)cn1 [Example I-49] | 100% | 100% | 90% | 90% | 100% | 100% | 100% | 100% | 90% | 90% | 90% | 100% | 100% | 100% | 100% | 90% | 90% | 90% |
